Source: patent US8765742B2, “Crystalline methylthioninium chloride hydrates” (Wista Laboratories Ltd., priority 2009, dated 2014)

Assay: Thermodynamic stability of the crystalline hydrate form at room temperature as a function of relative humidity
Format: physicochemical
Conditions: over the whole range of relative humidity

CN(C)c1ccc2nc3ccc(=[N+](C)C)cc-3sc2c1 [Form B, methylthioninium chloride dihydrate]
thermodynamic stability at room temperature: thermodynamically metastable
